Residues, ends and D or L forms follow the SMILES beside them. *: point of attachment. Cbz = O=C(OCc1ccccc1)*; CH2F = FC*
Legend:
Male C57BL/6 mice = test: Protection of mice from IR-induced lethality; type: in vivo, mouse
Method: FIG. 9. z-VAD protects mice from IR-induced lethality. Male C57BL/6 mice were given two i.p. injections of vehicle (0.25 ml PBS with 0.2% DMSO) or z-VAD (6 mg/kg) at one hour prior to and 5 h after exposure to a lethal dose of IR (10.5 Gy). The survival of these mice was monitored daily up to 24 days after exposure to IR. n=6 mice/group).
z-VAD protects mice from IR-induced lethality. Finally, the inventors examined if z-VAD acts as a radioprotectant to protect mice from IR-induced death. Male C57BL/6 mice were given two i.p. injections of vehicle (0.25 ml PBS with 0.2% DMSO) or z-VAD (6 mg/kg) at one hour prior to and 5 h after exposure to a lethal dose of IR (10.5 Gy). […] In contrast, 50% mice receiving z-VAD injections remain alive up to today (24 days) after IR.

mouse BM cells = test: Cobblestone area-forming cell (CAFC) assay of irradiated BM cells; type: cell-based; conditions: 100 μM z-VAD 1 h prior to 4 Gy IR
Method: FIGS. 8A-B. z-VAD partially protects HSC from IR-induced suppression of hematopoietic function. BM cells were pre-incubated with vehicle or 100 μM z-VAD for 1 h and then were exposed to 4 Gy IR. BM cells without IR were used as control. Six hours after the IR, the cells were overlaid on FBMD-1 stromal cell layers. The frequency of CAFC was determined on 7, 14, 21, 28 and 35 days after IR. FIG. 8A—Frequency of CAFC. FIG. 8B—Survival fraction of CAFC as compared to that of control cells. The data presented are mean +/− SEM (n=3 individual mice/groups). Vehicle/IR vs z-VAD/IR, p<0.01 by ANOVA.
z-VAD protects HSC from IR-induced suppression of hematopoietic function. To determine if inhibition of IR-induced HSC apoptosis by z-VAD preserves their hematopoietic function, mouse BM cells were pre-incubated with vehicle (0.2% DMSO) or z-VAD (100 μM) one hour prior to exposure to IR (4 Gy). The hematopoietic function of these cells were analyzed by cobblestone area-forming cell (CAFC) assay (Ploemacher et al., 1989). This in vitro assay provides an estimate of the hematopoietic function of a spectrum of CAFC day-types that correspond to CFU-granulocyte macrophage (CFU-GM) (CAFC day 7), CFU-spleen (CFU-S) day-12 (CAFC day 14), and the primitive HSC with long-term repopulating ability (CAFC day 28-35) (Ploemacher et al., 1989).

Lin− Sca1− c-kit+ cells = test: Apoptosis assay, annexin V/7-AAD flow cytometry of irradiated Lin- cells, progenitor gate; type: cell-based, mouse
Method: (§1) Isolation of lineage negative hematopoietic (Lin) cells: BM mononuclear cells were incubated with biotin-conjugated rat antibodies specific for murine CD5, Mac-1, CD45R/B220, Ter-119 and Gr-1. The labeled mature lymphoid and myeloid cells were removed twice after they were incubated with goat anti-rat IgG paramagnetic beads (Dynal Inc, Lake Success, N.Y.) at a bead:cell ratio of approximately 4:1 and exposed to a magnetic field. The isolated Lin- cells were washed twice with 2% FCS/HBSS and resuspended in complete medium (RPMI1640 medium with 10%FCS, 200 mM L-glutamine and 100 U/ml penicillin and streptomycin) at 1×10^6/ml.
(§2) Ionizing radiation (IR). Aliquots of 2 ml of Lin- cells (1×10^6/ml in complete medium) were placed into a cell culture tube and exposed to 4 Gy IR on a rotating platform in a Mark IV^137Cesium gamma-irradiator (JL Shepherd, Glendale, Calif.) at a dose rate of 1.21 Gy/min.
(§3) Apoptosis assays. Lin^− cells (1×10^6/ml in complete medium) were exposed to 4 Gy IR or non-irradiated (Control). They were incubated in wells of a 24-well plate at 37° C., 5% CO2 and 100% humidity for 6 or 18 h. For z-VAD treatment studies, the cells were pre-incubated with vehicle (0.2% DMSO) or 100 μM z-VAD for 1 h prior to IR exposure, or they were treated with z-VAD immediately before or 30 min, 1 h, 2 h or 4 h after IR exposure. After 6 or 18 h incubation, 0.5 ml cells ([…]) were washed once with 1 ml 0.1% BSA/PBS. The cells were centrifuged for 5 min, 350× g at 4° C. Next, the cells were incubated with anti-CD16/32 at 4° C. for 15 min to block the Fcγ receptors and then stained with Sca-1-PE and c-kit-APC antibodies for 20 min at 4° C. in the dark. The cells were washed twice with 1 ml 0.1% BSA/PBS, centrifuged for 5 min, 350× g at RT. Next, 100 μl 1× binding buffer (10 mM HEPES, pH 7.4, 140 mM NaCl, and 2.5 mM CaCl2) was added to the pellet along with 3 μl Annexin V-FITC (Pharmingen, San Diego, Calif.) and 5 μl 7-AAD (10 μg/ml, from Molecular Probes, Eugene, Oreg.). The cell suspension was gently mixed and incubated for 15 min at room temperature. The cells were diluted in 400 μl 1× binding buffer immediately prior to subjection of FACS analysis. In all experiments, PE and APC isotype controls and FITC and 7-AAD positive controls were included as appropriate. Two or four-color flow cytometric analyses were performed using a FACS Caliber (Becton Dickinson, San Jose, Calif.).

Lin− Sca1+ c-kit+ cells = test: Apoptosis assay, annexin V/7-AAD flow cytometry of irradiated Lin- cells, HSC gate; type: cell-based, mouse; conditions: for IR-induced apoptosis: 4 Gy
Method: as §1, §2, §3

[1] = 100 μM z-VAD 1 h prior to 4 Gy IR
[2] = 100 μM z-VAD 1 h prior to 4 Gy IR, 6 and 18 h post IR

## COC(=O)C[C@H](NC(=O)[C@H](C)NC(=O)[C@@H](NC(=O)OCc1ccccc1)C(C)C)C(=O)CF [z-VAD, Z-Val-Ala-Asp (OCH3)-Fluoromethylketone, methyl ester] (Cbz-Val-Ala-Asp(OMe)-CH2F)
Male C57BL/6 mice; z-VAD 6 mg/kg i.p. 1 h prior to and 5 h after 10.5 Gy IR, 24 days after IR, n=6
  mice alive after IR: 50%
Male C57BL/6 mice; z-VAD 6 mg/kg i.p. twice, 1 h prior to and 5 h after 10.5 Gy IR
  protection from IR-induced death: protected half
Mouse BM cells; p<0.01
  CAFC frequency and survival fraction vs vehicle-treated cells exposed to IR: significantly increased
Mouse BM cells; CAFC day 7-35
  survival fraction of CAFC relative to vehicle-treated cells: about 2 fold
Mouse BM cells; CAFC day 7
  survival fraction of CAFC: 0.211
Mouse BM cells; CAFC day 14
  survival fraction of CAFC: 0.058
Mouse BM cells; CAFC day 21
  survival fraction of CAFC: 0.148
Mouse BM cells; last value of the list, CAFC day 28 or 35 (four values printed for five days)
  survival fraction of CAFC: 0.453
Lin− Sca1− c-kit+ cells; [1]
  necrotic cell death (7-AAD+ cells): did not lead to an increase
Lin− Sca1− c-kit+ cells; 100 μM z-VAD 1 h prior to 4 Gy IR, 6 and 18 h after IR
  IR-induced apoptosis (annexin V+ and annexin V+/7-AAD+ cells): attenuated
Lin− Sca1− c-kit+ cells; [2]
  IR-induced reduction of cell numbers: only partially protected
Lin− Sca1− c-kit+ cells; 100 μM z-VAD 1 h prior to 4 Gy IR, 18 h post IR
  numbers of cells as percentage of un-irradiated control cells: about 29%
Lin− Sca1− c-kit+ cells; 100 μM z-VAD given -1 h to 4 h relative to 4 Gy IR
  IR-induced apoptosis, compared with the effect in Lin− Sca1+ c-kit+ cells: to a less extent
Lin− Sca1+ c-kit+ cells; [1]
  necrotic cell death (7-AAD+ cells): did not lead to an increase
Lin− Sca1+ c-kit+ cells; [2]
  IR-induced reduction of cell numbers: completely prevented
Lin− Sca1+ c-kit+ cells; 100 μM z-VAD 1 h prior to 4 Gy IR, 6 h after IR
  IR-induced apoptosis (annexin V+ and annexin V+/7-AAD+ cells): significantly inhibited
Lin− Sca1+ c-kit+ cells; 100 μM z-VAD 1 h prior to 4 Gy IR, 18 h after IR
  IR-induced apoptosis (annexin V+ and annexin V+/7-AAD+ cells): completely protected
Lin− Sca1+ c-kit+ cells; 100 μM z-VAD given at 4 h post IR
  IR-induced apoptosis: only partially inhibited
Lin− Sca1+ c-kit+ cells; 100 μM z-VAD given prior to IR (-1 h) or up to 2 h post IR
  IR-induced apoptosis: abrogated

Reference: patent publication US20070184021A1, “Use of caspase inhibitors as a therapeutic agent against radiation-induced injury” (priority 2002, published 2007)
